From patent publication US11051513B2, “Pyridone compounds and agricultural and horticultural fungicides containing the same as active ingredients” (MITSUI CHEMICALS AGRO, INC., priority 2017, dated 2021)

Assays:
Magnaporthe grisea = assay: whole plant or invertebrate; type: in vivo; details: Pyricularia oryzae, in Oryza sativa, read-out: control value
Puccinia recondita = assay: Test Example E: Brown rust on wheat; type: in vivo; details: 250 ppm sprayed (2.5 ml/pot) on wheat (Norin 61), disease development 7 to 10 days after inoculation
Botrytis cinerea = assay: Test Example B: Gray mold on tomato; details: in Solanum lycopersicum, read-out: control value
Experimental: (§1) Disease development in Test Examples described below was evaluated in increments of 0.05 by setting 0 as no incidence of disease and 3 as disease development in a plant of untreated group. Further, control values were calculated using the following equation based on disease development.
(§2) <Control Value> Control value=100{1−(n/3)}
(§3) n=Disease development of each treated group
Seeds of a test plant (tomato variety: Oogata Fukuju) were planted and cultivated until three to five first leaves (true leaves) appeared. In the test, the inventive compounds were dissolved into a dimethyl sulfoxide-methanol mixture solution (volume ratio: 9/1), and the resultant solutions were diluted with well water to a concentration of 250 ppm. The thus-obtained dilutions were sprayed to the test plant (2.5 ml/pot). After the dilutions dried, a conidial suspension (4-8×10^5 conidia/ml) of Botrytis cinerea was inoculated to the plant by spraying. After the inoculation, the plant was kept in a mist chamber at room temperature of 20 to 23° C. for about 48 hours to promote the onset of disease. The disease development was investigated 2 to 3 days after the inoculation, and the effectiveness of the dilutions was evaluated.

[1] = system: Colletotrichum orbiculare; assay: Test Example H: Anthracnose on cucumber; details: in Cucumis sativus, read-out: control value
Experimental: as §1, §2, §3
Seeds of a test plant (cucumber variety: Sagami Hanjiro) were planted and cultivated until the first leaf appeared. In the test, the inventive compounds were dissolved into a dimethyl sulfoxide-methanol mixture solution (volume ratio: 9/1), and the resultant solutions were diluted with well water to a concentration of 250 ppm. The thus-obtained dilutions were sprayed to the test plant (2.5 ml/pot). After the dilutions dried, a conidial suspension (2-4×10^5 conidia/ml) of Colletotrichum orbiculare was inoculated to the plant by spraying. After the inoculation, the plant was kept in a mist chamber at room temperature of 20 to 23° C. for about 24 hours to promote the onset of disease. The disease development was investigated 6 to 10 days after the inoculation, and the effectiveness of the dilutions was evaluated.

[2] = system: Blumeria graminis f. sp. hordei; assay: Test Example D: Powdery mildew on barley; details: in Hordeum vulgare, read-out: control value
Experimental: as §1, §2, §3
Seeds of a test plant (barley variety: Akashinriki) were planted and cultivated until the first leaves appeared. In the test, the inventive compounds were dissolved into a dimethyl sulfoxide-methanol mixture solution (volume ratio: 9/1), and the resultant solutions were diluted with well water to a concentration of 250 ppm. The thus-obtained dilutions were sprayed to the test plant (2.5 ml/pot). After the dilutions dried, conidia of Blumeria graminis f. sp. hordei were inoculated to the plant by shaking off. The disease development was investigated 6 to 10 days after the inoculation, and the effectiveness of the dilutions was evaluated.

Alternaia brassicicola = assay: Test Example C: Alternaria sooty spot on cabbage; details: Brassica oleracea, read-out: control value
Experimental: as §1, §2, §3
Seeds of a test plant (cabbage variety: Shikidori) were planted and cultivated until the cotyledons extended. In the test, the inventive compounds were dissolved into a dimethyl sulfoxide-methanol mixture solution (volume ratio: 9/1), and the resultant solutions were diluted with well water to a concentration of 250 ppm. The thus-obtained dilutions were sprayed to the test plant (2.5 ml/pot). After the dilutions dried, a conidial suspension (4-8×10^5 conidia/ml) of Alternaia brassicicola was inoculated to the plant by spraying. After the inoculation, the plant was kept in a mist chamber at room temperature of 20 to 23° C. for about 48 hours to promote the onset of disease. The disease development was investigated 2 to 3 days after the inoculation, and the effectiveness of the dilutions was evaluated.

Measured: pest or weed control at 250 ppm

O=c1ccc(-c2cc(F)cc(F)c2Cl)c(-c2ccc(F)cc2)n1CC(F)F [compound 30, 5-(2-chloro-3,5-difluorophenyl)-1-(2,2-difluoroethyl)-6-(4-fluorophenyl)pyridin-2(1H)-one]
> 50%: all assays above

CCn1c(-c2ccc(F)cc2)c(-c2cccnc2Cl)ccc1=O [compound 288, 2′-chloro-1-ethyl-2-(4-fluorophenyl)-[3,3′-bipyridin]-6(1H)-one]
> 50%: all assays above

CCn1c(-c2ccc(F)cc2)c(-c2cccnc2Cl)cc(Cl)c1=O [compound 291, 2′,5-dichloro-1-ethyl-2-(4-fluorophenyl)-[3,3′-bipyridin]-6(1H)-one]
> 50%: all assays above

CCn1c(-c2ccc(F)cc2)c(-c2cc(OCOC)ccc2Cl)cc(Cl)c1=O [compound 248, 3-chloro-5-(2-chloro-5-(methoxymethoxy)phenyl)-1-ethyl-6-(4-fluorophenyl)pyridin-2(1H)-one]
> 50%: all assays above

CCn1c(-c2ccc(F)cc2)c(-c2cc(F)cc(F)c2Cl)cc(Br)c1=O [compound 14, 3-bromo-5-(2-chloro-3,5-difluorophenyl)-1-ethyl-6-(4-fluorophenyl)pyridin-2(1H)-one]
> 50%: all assays above

CCn1c(-c2ccc(F)cc2)c(-c2cc(O)ccc2Cl)cc(Cl)c1=O [compound 340, 3-chloro-5-(2-chloro-5-hydroxyphenyl)-1-ethyl-6-(4-fluorophenyl)pyridin-2(1H)-one]
> 50%: all assays above

O=C1CCC(c2cc(F)cc(F)c2Cl)=C(c2ccc(F)cc2)N1CC(F)F [compound 29, 5-(2-chloro-3,5-difluorophenyl)-1-(2,2-difluoroethyl)-6-(4-fluorophenyl)-3,4-dihydropy ridin-2(1H)-one]
> 50%: Magnaporthe grisea | Puccinia recondita | [1] | [2]

CCn1c(-c2ccc(F)cc2)c(-c2cc(F)cc(F)c2Cl)ccc1=O [compound 12, 5-(2-chloro-3,5-difluorophenyl)-1-ethyl-6-(4-fluorophenyl)pyridin-2(1H)-one]
> 50%: all assays above

O=c1c(Cl)cc(-c2cc(F)cc(F)c2Cl)c(-c2ccc(F)cc2)n1CC(F)F [compound 31, 3-chloro-5-(2-chloro-3,5-difluorophenyl)-1-(2,2-difluoroethyl)-6-(4-fluorophenyl)pyridin-2(1H)-one]
> 50%: all assays above

CCn1c(-c2ccc(F)cc2)c(-c2cc(OC)ccc2Cl)ccc1=O [compound 33, 5-(2-chloro-5-methoxyphenyl)-1-ethyl-6-(4-fluorophenyl)pyridin-2(1H)-one]
> 50%: all assays above

CCN1C(=O)CCC(c2cc(F)cc(F)c2Cl)=C1c1ccc(F)cc1 [compound 11, 5-(2-chloro-3,5-difluorophenyl)-1-ethyl-6-(4-fluorophenyl)-3,4-dihydropyridin-2(1H)-one]
> 50%: all assays above

CCn1c(-c2ccc(F)cc2)c(-c2cc(OC)ccc2Cl)cc(Cl)c1=O [compound 44, 3-Chloro-5-(2-chloro-5-methoxyphenyl)-1-ethyl-6-(4-fluorophenyl)pyridin-2(1H)-one]
> 50%: all assays above

CCn1c(-c2ccc(F)cc2)c(-c2cc(F)cc(F)c2Cl)cc(Cl)c1=O [compound 13, 3-chloro-5-(2-chloro-3,5-difluorophenyl)-1-ethyl-6-(4-fluorophenyl)pyridin-2(1H)-one]
> 50%: all assays above

CCn1c(-c2ccc(F)cc2)c(-c2cc(F)cc(F)c2Cl)cc(C)c1=O [compound 27, 5-(2-Chloro-3,5-difluorophenyl)-1-ethyl-6-(4-fluorophenyl)-3-methylpyridin-2(1H)-one]
> 50%: all assays above
